Data from the supplement of paper PMC11451515.

Tested on: NOMO1
Assay: cell viability relative to DMSO control; higher = less cytotoxic
Details: 48 h
Summary of the method: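 Library compounds in DMSO were pin-dosed into 1536-well plates (5 μl) holding NOMO1 or SEM (500 cells/well) or P12-Ichikawa (1000 cells/well) leukemia cells, across an 11-point threefold series of 47 μM to 0.79 nM. Each cell line had been adapted for at least four passages in each medium. CellTiter-Glo One luminescence was read after 48 h at 37°C. Viability is the per-plate percentage relative to DMSO wells, with cell-free wells as background.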

[1] = HPLM + 10% dialyzed FBS, 0.000781 µM
[2] = HPLM + 10% dialyzed FBS, 0.00234 µM
[3] = HPLM + 10% dialyzed FBS, 0.00702 µM
[4] = HPLM + 10% dialyzed FBS, 0.0211 µM
[5] = HPLM + 10% dialyzed FBS, 0.0632 µM
[6] = HPLM + 10% dialyzed FBS, 0.19 µM
[7] = HPLM + 10% dialyzed FBS, 0.569 µM
[8] = HPLM + 10% dialyzed FBS, 1.71 µM
[9] = HPLM + 10% dialyzed FBS, 5.12 µM
[10] = HPLM + 10% dialyzed FBS, 15.4 µM
[11] = HPLM + 10% dialyzed FBS, 46.1 µM
[12] = RPMI 5 mM glucose + 10% FBS, 0.000781 µM
[13] = RPMI 5 mM glucose + 10% FBS, 0.00234 µM
[14] = RPMI 5 mM glucose + 10% FBS, 0.00702 µM
[15] = RPMI 5 mM glucose + 10% FBS, 0.0211 µM
[16] = RPMI 5 mM glucose + 10% FBS, 0.0632 µM
[17] = RPMI 5 mM glucose + 10% FBS, 0.19 µM
[18] = RPMI 5 mM glucose + 10% FBS, 0.569 µM
[19] = RPMI 5 mM glucose + 10% FBS, 1.71 µM
[20] = RPMI 5 mM glucose + 10% FBS, 5.12 µM
[21] = RPMI 5 mM glucose + 10% FBS, 15.4 µM
[22] = RPMI 5 mM glucose + 10% FBS, 46.1 µM
[23] = RPMI 5 mM glucose + 10% dialyzed FBS, 0.000781 µM
[24] = RPMI 5 mM glucose + 10% dialyzed FBS, 0.00234 µM
[25] = RPMI 5 mM glucose + 10% dialyzed FBS, 0.00702 µM
[26] = RPMI 5 mM glucose + 10% dialyzed FBS, 0.0211 µM
[27] = RPMI 5 mM glucose + 10% dialyzed FBS, 0.0632 µM
[28] = RPMI 5 mM glucose + 10% dialyzed FBS, 0.19 µM
[29] = RPMI 5 mM glucose + 10% dialyzed FBS, 0.569 µM
[30] = RPMI 5 mM glucose + 10% dialyzed FBS, 1.71 µM
[31] = RPMI 5 mM glucose + 10% dialyzed FBS, 5.12 µM
[32] = RPMI 5 mM glucose + 10% dialyzed FBS, 15.4 µM
[33] = RPMI 5 mM glucose + 10% dialyzed FBS, 46.1 µM

| Compound | cell viability [1] | cell viability [2] | cell viability [3] | cell viability [4] | cell viability [5] | cell viability [6] | cell viability [7] | cell viability [8] | cell viability [9] | cell viability [10] | cell viability [11] | cell viability [12] | cell viability [13] | cell viability [14] | cell viability [15] | cell viability [16] | cell viability [17] | cell viability [18] | cell viability [19] | cell viability [20] | cell viability [21] | cell viability [22] | cell viability [23] | cell viability [24] | cell viability [25] | cell viability [26] | cell viability [27] | cell viability [28] | cell viability [29] | cell viability [30] | cell viability [31] | cell viability [32] | cell viability [33] |
| --- | --- | --- | --- | --- | --- | --- | --- | --- | --- | --- | --- | --- | --- | --- | --- | --- | --- | --- | --- | --- | --- | --- | --- | --- | --- | --- | --- | --- | --- | --- | --- | --- | --- |
| CCc1cccc2c3c([nH]c12)C(CC)(CC(=O)O)OCC3 (stereo not drawn) | 98.5% | 98.5% | 122% | 105% | 100% | 113% | 88.4% | 97.8% | 97.4% | 100% | 84.5% | 95% | 92.7% | 95.9% | 102% | 85% | 90.4% | 98.1% | 93.2% | 93.6% | 84.7% | 87.2% | 100% | 94.3% | 95.1% | 87.3% | 82.4% | 77.7% | 89.3% | 87.5% | 92.9% | 82.9% | 97.1% |
| OC(CCN1CCCCC1)(C2CC\3CC2\C=C3)C4=CC=CC=C4 (stereo not drawn) | 125% | 119% | 125% | 123% | 140% | 133% | 138% | 144% | 136% | 117% | 94.2% | – | – | – | – | – | – | – | – | – | – | – | – | – | – | – | – | – | – | – | – | – | – |
| O=C(C[C@@H]1C/C=C\CCC(=O)O[C@H](c2ccccc2)CNC1=O)NCc1ccc(Cl)cc1 | 112% | 125% | 117% | 125% | 111% | 138% | 133% | 114% | 121% | 118% | 114% | 87.2% | 106% | 120% | 109% | 104% | 115% | 114% | 102% | 109% | 98.5% | 110% | 92.2% | 114% | 99.3% | 111% | 113% | 117% | 120% | 125% | 105% | 111% | 99.5% |
| OCCNC1CCCc2c1[nH]c1ccc(-c3ccccc3)cc21 (stereo not drawn) | 81.8% | 93.5% | 106% | 105% | 117% | 112% | 109% | 105% | 104% | 87.1% | 11.2% | 93.4% | 103% | 109% | 105% | 111% | 96.5% | 109% | 110% | 100% | 98.6% | 14.7% | 83.7% | 97.4% | 106% | 105% | 111% | 99.4% | 104% | 96.3% | 105% | 88.6% | 22.7% |
| CC(C)C(=O)Nc1ncc(-c2cc(C(F)F)nn2-c2c(Cl)cccc2Cl)s1 | 116% | 123% | 112% | 137% | 152% | 125% | 148% | 132% | 133% | 133% | 83.9% | – | – | – | – | – | – | – | – | – | – | – | – | – | – | – | – | – | – | – | – | – | – |
| Cc1cc(-c2nnc3n2CCCCC3)c(C)n1-c1ccccc1 | 116% | 122% | 136% | 131% | 121% | 125% | 148% | 132% | 117% | 120% | 108% | 112% | 112% | 109% | 122% | 115% | 120% | 118% | 114% | 117% | 116% | 110% | 115% | 120% | 110% | 114% | 124% | 113% | 116% | 121% | 111% | 122% | 120% |
| O=[S+]([O-])(CCSSCC[S+](=O)([O-])[O][Na])[O][Na] | 110% | 104% | 132% | 124% | 120% | 112% | 133% | 125% | 135% | 129% | 141% | 107% | 115% | 125% | 119% | 127% | 123% | 125% | 129% | 147% | 130% | 142% | 107% | 112% | 126% | 130% | 121% | 122% | 125% | 139% | 134% | 144% | 127% |
| COc1cc(Nc2ncc(F)c(Nc3ccc4c(n3)N(COP(=O)(O)O)C(=O)C(C)(C)O4)n2)cc(OC)c1OC | 93.5% | 94.8% | 101% | 97.2% | 122% | 106% | 87.6% | 99.5% | 116% | 93.5% | 91.1% | 80.8% | 90.2% | 94.1% | 100% | 103% | 98.6% | 95.6% | 94.4% | 94.1% | 94.2% | 92.6% | 101% | 89% | 90.8% | 80.2% | 89.6% | 102% | 88.5% | 86.6% | 94.6% | 89.4% | 99.1% |
| COc1ccc(CC2c3cc(OC)c(OC)cc3CC[N+]2(C)CCC(=O)OCCCCCOC(=O)CC[N+]2(C)CCc3cc(OC)c(OC)cc3C2Cc2ccc(OC)c(OC)c2)cc1OC (stereo not drawn) | 91% | 98.8% | 116% | 98.5% | 109% | 98.8% | 93.6% | 92.2% | 77.1% | 29.9% | 7.29% | 77.8% | 77.8% | 85.7% | 89.3% | 98.6% | 93% | 85.7% | 97.5% | 87.5% | 65% | 8.84% | 75.5% | 87% | 79.2% | 93.3% | 85.8% | 92% | 84.6% | 90% | 70% | 67.5% | 8.69% |
